Results: ChEMBL document CHEMBL6092203, “Discovery of Novel PROTAC-Based HPK1 Degraders with High Potency and Selectivity for Cancer Immunotherapy” (J Med Chem, 2024)
Active and inactive are the calls of the source. The rule behind the calls is not given here.

Tests used:
[1] = target: T1, Protein cereblon/Mitogen-activated protein kinase kinase kinase kinase 1 (Homo sapiens, UniProt Q92918+Q96SW2); experiment: PROTAC activity at CRBN/HPK1 in human Jurkat cells assessed as maximum degradation incubated for 24 hrs by Western blotting analysis; format: cell-based
[2] = target: T1, Protein cereblon/Mitogen-activated protein kinase kinase kinase kinase 1; experiment: PROTAC activity at CRBN/HPK1 in human Jurkat cells assessed as HPK1 degradation at 1 uM pretreated with lenalidomide for 4 hrs followed by compound addition and measured after 24 hrs by Western blotting analysis; format: cell-based
[3] = Induction of IL-2 secretion in human PBMCs incubated for 24 hrs by ELISA; format: functional, cell-based, PBMC
Cytochrome P450 2B6 = target: T2, Cytochrome P450 2B6 (Homo sapiens, UniProt P20813); experiment: Inhibition of CYP2B6 in human liver microsomes using bupropion as substrate in presence of NADPH; format: ADME, Microsome
T2 sequence (P20813 whole entry): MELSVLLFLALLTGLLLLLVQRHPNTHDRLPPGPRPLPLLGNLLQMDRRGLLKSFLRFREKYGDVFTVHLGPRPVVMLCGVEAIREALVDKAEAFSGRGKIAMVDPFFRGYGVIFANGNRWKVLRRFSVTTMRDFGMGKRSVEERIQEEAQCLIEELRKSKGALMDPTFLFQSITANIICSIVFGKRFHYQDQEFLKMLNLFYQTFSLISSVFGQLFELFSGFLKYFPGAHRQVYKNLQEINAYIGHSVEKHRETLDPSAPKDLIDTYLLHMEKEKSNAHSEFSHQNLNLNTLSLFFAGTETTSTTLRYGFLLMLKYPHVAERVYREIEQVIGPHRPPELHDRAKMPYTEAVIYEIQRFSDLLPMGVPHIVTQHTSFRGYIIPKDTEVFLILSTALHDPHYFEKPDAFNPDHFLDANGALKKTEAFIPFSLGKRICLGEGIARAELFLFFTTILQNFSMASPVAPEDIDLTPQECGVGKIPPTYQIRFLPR

Cytochrome P450 3A4 = Cytochrome P450 3A4 (Homo sapiens, UniProt P08684); experiment: Inhibition of CYP3A4 in human liver microsomes using midazolam as substrate in presence of NADPH; format: ADME, Microsome
[4] = Metabolic stability in human liver microsomes assessed as intrinsic clearance at 1 uM incubated for 45 mins by LC-MS/MS method; format: ADME, Microsome; conditions: read-out: CLH
[5] = Initial plasma concentration in C57BL/6J mouse at 2 mg/kg, iv measured upto 24 hrs by LC-MS analysis; format: ADME, organism-based
[6] = Clearance in C57BL/6J mouse at 2 mg/kg, iv measured upto 24 hrs by LC-MS analysis; conditions: in vivo
[7] = Half-life in C57BL/6J mouse at 10 mg/kg, po measured upto 24 hrs by LC-MS analysis; conditions: in vivo
[8] = Half-life in Sprague-Dawley rat at 2 mg/kg, iv measured upto 24 hrs by LC-MS analysis; conditions: in vivo
[9] = Tmax in Sprague-Dawley rat at 1 mg/kg, po measured upto 24 hrs by LC-MS analysis; format: ADME, organism-based; conditions: in vivo
[10] = Half-life in Sprague-Dawley rat at 1 mg/kg, po measured upto 24 hrs by LC-MS analysis; conditions: in vivo
[11] = Initial plasma concentration in Beagle dog at 1 mg/kg, iv measured upto 24 hrs by LC-MS analysis; format: ADME, organism-based, Canis lupus familiaris; conditions: in vivo
[12] = Drug absorption in rat at 10 to 100 mg/kg, po; format: ADME, organism-based; conditions: in vivo, dose 10-100 mg/kg
[13] = Drug distribution in rat lung measured after 0.5 to 6 hrs; format: ADME, tissue-based; conditions: in vivo, time 0.5-6 hrs
[14] = Drug distribution in rat lymph node measured after 0.5 to 6 hrs; format: ADME, tissue-based; conditions: in vivo, time 0.5-6 hrs
[15] = In vivo induction of HPK1 degradation in C57BL/6J mouse spleen at 0.5 mg/kg administered as single dose and measured after 8 to 24 hrs; format: functional; conditions: time 8-24 hrs
MC-38 [16] = experiment: Antitumor activity against mouse MC38 cells implanted in po dosed C57BL/6J mouse assessed as tumor growth inhibition administered for 3 to 4 weeks; format: functional, organism-based; conditions: time 3-4 weeks
MC-38 [17] = experiment: Antitumor activity against mouse MC38 cells implanted in C57BL/6J mouse assessed as tumor growth inhibition at 0.5 mg/kg, IG BID administered for 3 to 4 weeks; format: functional, organism-based; conditions: time 3-4 weeks
MC-38 [18] = experiment: Antitumor activity against mouse MC38 cells implanted in C57BL/6J mouse assessed as reduction in tumor volume at 100 mg/kg, po QD administered for 3 to 4 weeks (reference value: 1549.22 +/- 217.92 mm3); format: functional; conditions: time 3-4 weeks
MC-38 [19] = experiment: Antitumor activity against mouse MC38 cells implanted in C57BL/6J mouse assessed as reduction in tumor volume at 0.5 mg/kg, po BID administered for 3 to 4 weeks (reference value: 1549.22 +/- 217.92 mm3); format: functional; conditions: time 3-4 weeks
MC-38 [20] = experiment: Synergistic antitumor activity against mouse MC38 cells implanted in C57BL/6J mouse assessed as reduction in tumor volume at 0.5 mg/kg, po bid administered for 3 to 4 weeks in presence of 5 mg/kg anti-PD1 and measured twice a week (reference value: 1549.22 +/- 217.92 mm3); format: functional; conditions: time 3-4 weeks
MC-38 [21] = experiment: Antitumor activity against mouse MC38 cells implanted in C57BL/6J mouse assessed as reduction in tumor weight at 100 mg/kg, po QD administered for 3 to 4 weeks (reference value: 1.79 +/- 0.24 g); format: functional; conditions: time 3-4 weeks
[22] = Tmax in female Sprague-Dawley rat at 2 mg/kg/day, po measured at day 1; format: ADME, organism-based; conditions: in vivo, time 1 day
[23] = Tmax in female Sprague-Dawley rat at 100 mg/kg/day, po measured at day 1; format: ADME, organism-based; conditions: in vivo, time 1 day
[24] = AUC(0 to 24 hrs) in male Sprague-Dawley rat at 100 mg/kg/day, po measured at day 1; format: ADME, organism-based; conditions: in vivo, time 1 day
[25] = Toxicity in Sprague-Dawley rat assessed as efficacy dose measured after 14 days; conditions: in vivo, 336 h, time 14 day
[26] = Toxicity in Sprague-Dawley rat assessed as efficacy dose exposure measured after 14 days; conditions: in vivo
[27] = Toxicity in C57BL/6J mouse assessed as change in body weight at 100 mg/kg, po qd measured after 28 days in presence of 5 mg/kg anti-PD1; format: organism-based; conditions: in vivo, 672 h, time 28 day
[28] = Toxicity in C57BL/6J mouse assessed as change in body weight at 0.1 to 1 mg/kg, po bid measured after 28 days in presence of 5 mg/kg anti-PD1; format: organism-based; conditions: in vivo, 672 h, dose 0.1-1 mg/kg, time 28 day
in vivo [29] = conditions: C57BL/6J, mouse, po, 10 mg/kg
in vivo [30] = conditions: female, Sprague-Dawley, rat, po, 30 mg/kg
in vivo [31] = conditions: male, Sprague-Dawley, rat, po, 2 mg/kg
in vivo [32] = conditions: female, Sprague-Dawley, rat, po, 2 mg/kg
in vitro = conditions: human, hepatocytes

T1 sequence (Q92918 whole entry, looked up): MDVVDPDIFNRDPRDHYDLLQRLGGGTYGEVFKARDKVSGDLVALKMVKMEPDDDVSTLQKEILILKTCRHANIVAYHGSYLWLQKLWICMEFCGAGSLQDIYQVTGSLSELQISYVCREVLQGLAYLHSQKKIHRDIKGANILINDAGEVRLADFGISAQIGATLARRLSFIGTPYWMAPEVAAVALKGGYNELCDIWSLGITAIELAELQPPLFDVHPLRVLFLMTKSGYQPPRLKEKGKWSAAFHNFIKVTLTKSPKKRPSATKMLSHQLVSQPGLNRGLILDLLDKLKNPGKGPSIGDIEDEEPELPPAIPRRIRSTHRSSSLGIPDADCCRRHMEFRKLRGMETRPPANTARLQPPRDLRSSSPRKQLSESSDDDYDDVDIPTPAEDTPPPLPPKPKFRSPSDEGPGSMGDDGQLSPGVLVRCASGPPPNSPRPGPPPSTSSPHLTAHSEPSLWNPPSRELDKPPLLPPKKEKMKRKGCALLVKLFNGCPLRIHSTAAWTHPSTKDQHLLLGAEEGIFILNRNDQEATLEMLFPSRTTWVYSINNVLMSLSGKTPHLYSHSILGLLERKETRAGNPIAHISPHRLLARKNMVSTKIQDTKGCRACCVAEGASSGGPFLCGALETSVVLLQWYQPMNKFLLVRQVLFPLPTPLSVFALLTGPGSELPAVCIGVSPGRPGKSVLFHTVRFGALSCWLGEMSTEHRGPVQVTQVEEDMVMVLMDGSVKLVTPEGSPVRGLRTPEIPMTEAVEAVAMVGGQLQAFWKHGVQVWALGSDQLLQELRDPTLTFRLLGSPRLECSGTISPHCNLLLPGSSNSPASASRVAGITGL
T1 sequence (Q96SW2 whole entry, looked up): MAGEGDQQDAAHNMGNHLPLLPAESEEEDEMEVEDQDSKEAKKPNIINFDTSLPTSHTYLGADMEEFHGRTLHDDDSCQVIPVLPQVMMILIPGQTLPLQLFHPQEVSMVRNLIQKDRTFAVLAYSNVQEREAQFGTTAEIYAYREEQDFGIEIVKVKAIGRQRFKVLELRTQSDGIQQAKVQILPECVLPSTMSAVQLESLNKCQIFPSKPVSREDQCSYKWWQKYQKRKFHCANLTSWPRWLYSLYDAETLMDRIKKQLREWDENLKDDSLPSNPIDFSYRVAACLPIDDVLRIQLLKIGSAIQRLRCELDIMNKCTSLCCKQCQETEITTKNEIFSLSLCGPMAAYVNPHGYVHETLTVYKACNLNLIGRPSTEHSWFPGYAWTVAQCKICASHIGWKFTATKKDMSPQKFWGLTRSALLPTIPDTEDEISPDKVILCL
Chain of Cytochrome P450 3A4 (P08684 whole entry): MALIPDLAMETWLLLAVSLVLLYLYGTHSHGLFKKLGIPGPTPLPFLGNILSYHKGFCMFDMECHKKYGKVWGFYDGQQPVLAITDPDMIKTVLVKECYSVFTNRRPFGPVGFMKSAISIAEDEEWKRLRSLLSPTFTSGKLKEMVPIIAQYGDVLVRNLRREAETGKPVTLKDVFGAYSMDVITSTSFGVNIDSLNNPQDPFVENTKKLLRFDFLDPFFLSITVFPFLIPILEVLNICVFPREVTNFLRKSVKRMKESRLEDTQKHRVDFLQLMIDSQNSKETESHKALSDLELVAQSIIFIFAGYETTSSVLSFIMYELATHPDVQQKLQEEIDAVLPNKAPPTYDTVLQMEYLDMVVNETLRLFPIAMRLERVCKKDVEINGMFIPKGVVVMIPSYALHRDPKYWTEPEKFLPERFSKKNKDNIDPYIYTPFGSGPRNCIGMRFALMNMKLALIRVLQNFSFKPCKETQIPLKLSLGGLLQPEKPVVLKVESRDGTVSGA

With `O=C1CCN(c2cc(C(=O)N3CCC(CC4CCN(c5ccc(-c6cnc7[nH]cc(-c8cnn(CC(F)(F)F)c8)c7n6)cn5)CC4)CC3)ccc2Cl)C(=O)N1` the Emax [1] was 94%, the Activity [2] was “inactive” and the Emax [3] was 1151.57 pg/mL. For the same compound, the IC50 (Cytochrome P450 2B6) was over 10 µM, the IC50 (Cytochrome P450 3A4) was over 10 µM and the microsomal CLint at 1 µM [4] was 3.48 µL/min/mg. For the same compound, the C0 at 24 h [5] was 1590 ng/mL, the clearance at 24 h [6] was 6 mL/min/kg and the half-life at 24 h [7] was 3.44 h. The half-life at 24 h [8] was 2.86 h, the Tmax [9] was 3.17 h and the half-life at 24 h [10] was 5.15 h. For the same compound, the C0 [11] was 794 ng/mL, the Drug absorption [12] was “Active” and the Drug uptake [13] was “Active”. For the same compound, the Drug uptake [14] was “Active”, the Emax at 0.5 mg/kg [15] was 61.3% and the Activity (MC-38 [16]) was “Dose-dependent-effect; Twice Daily Dose Was Slightly Better Than Once Daily”. For the same compound, the Activity (MC-38 [17]) was “Active; Comparable To 100 Mg/Kg Dd203-1 Treatement Group”, the Activity (MC-38 [18]) was 667.6 mm3 and the Activity (MC-38 [19]) was 752.98 mm3. The Activity (MC-38 [20]) was 139.36 mm3, the Activity (MC-38 [21]) was 0.92 g and the Tmax [22] was 6 h. The Tmax [23] was 8 h, the AUC(0-t) at 24 h [24] was 107000 ng·h/mL and the Activity [25] was 0.8 mg/kg/day. The AUC at 336 h [26] was 291 ng·h/mL, the Activity [27] was “Non-toxic” and the Activity [28] was “Non-toxic”. It also gave a Cmax at 24 h (in vivo [29]) of 3180 ng/mL, a Cmax at 24 h (in vivo [30]) of 4900 ng/mL and a Cmax at 336 h (in vivo [31]) of 64.2 ng/mL. The AUC at 336 h (in vivo [32]) was 645 ng·h/mL and the half-life at 1.5 h, 1 µM (in vitro) was 6.02 h.
